According to patent US20250215026A1, “Deuterated Compounds, Compositions and Uses” (BioJive LLC, priority 2018, published 2025):

Experiments:
[1] = Liposome leakage of sulforhodamine B by fluorescence correlation spectroscopy, +/- Fe2+/ascorbate
Experimental: The equipment set up and peak intensity analysis was conducted as described in Perevoshchikova, et al., Biochim. Biophys. Acta 1778, 2182-2190 (2008). Briefly, fluorescence excitation and detection utilized a Nd: YAG solid state laser with a 532-nm beam attached to an Olympus IMT-2 epifluorescent inverted microscope equipped with a 40×, NA 1.2 water immersion objective (Carl Zeiss, Jena, Germany). The fluorescence light passed through an appropriate dichroic beam splitter and a long-pass filter and was imaged onto a 50-μm core fiber coupled to an avalanche photodiode (SPCM-AQR-13-FC, PerkinElmer Optoelectronics, Vaudreuil, Quebec, Canada). The signal from an output was sent to a PC using a fast interface card (Flex02-01D/C, Correlator.com, Bridgewater, NJ). The data acquisition time was 30 s. The fluorescence was recorded from the confocal volume located at about 50 μm above the coverslip surface with 50 μL of the buffer solution added. Most of the data were collected under the conditions of stirring a suspension by a paddle-shaped 3-mm plastic bar rotated at 600 rpm. To calibrate the setup, the fluorescence autocorrelation function of Rhodamine 6G solution was recorded. Assuming the diffusion coefficient of the dye to be 2.5×10^−6 cm^2/s, the value of the confocal radius is circa ω=0.42 μm. The correlated fluorescence emission signals were fitted to the three-dimensional autocorrelation function as described in Hess, et al., Biochemistry 41; 697-705 (2002).
SRB-loaded liposomes were suspended in an aqueous solution of Fe^2+ and ascorbate […], prepared from lipid mixtures containing linoleoyl stearoyl phosphatidylcholine (H-Lin-PC) as the bulk lipid (unless otherwise stated) with various contents of a series of 1-stearoyl phosphatidylcholines, including compounds of Formula (II). To measure G(τ→0) more precisely, the FCS experiments were performed under stirring conditions. […] The reduction of the G(τ→0) amplitude apparently reflected an increase in the number of fluorescent particles due to SRB release from liposomes. […]

[2] = Incorporation of orally dosed D-DHA into retina by nanoSIMS; assay type: in vivo, mouse; details: after three days of dosing
Experimental: In this example, D-DHA (20 mg; 1 mg/ul) was administered orally as ethyl ester to a wild-type mouse by gavage for three consecutive days in addition to unrestricted regular DHA-free rodent diet. Mouse retina was harvested and then fixed and embedded in resin. Retinal sections were analyzed with nanoscale secondary ion mass spectrometry (nanoSIMS) to determine the incorporation rates of D-DHA into retinal cells by measuring the relative enrichment of DHA-bound deuterium over its natural tissue abundance. The D-DHA/DHA substitution rate of natural DHA in the outer segments was calculated by the ratio of increased deuterium abundance vs. total hydrogen contribution of DHA in outer segments.

[2H]C([2H])(/C=C\CCCCC)/C=C\CCCCCCCC(=O)O[C@H](COC(=O)CCCCCCCCCCCCCCCCC)COP(=O)([O-])OCC[N+](C)(C)C [D2-Lin-PC, 1-stearoyl-2-(11,11-D2-linoleyl)-sn-glycero-3-phosphatidylcholine]
effect of incubation with Fe/ascorbate on G(τ→0) amplitude of SRB ([1]; 10% D2-Lin-PC in H-Lin-PC, 0, 10, 20 min, FIG. 1A): led to a decrease in the G(τ→0) amplitude
effect of incubation with Fe2+/ascorbate on G(τ→0) amplitude of SRB ([1]; 25% D2-Lin-PC in H-Lin-PC, FIG. 1B): did not reduce the amplitude of G(τ→0) or reduced it to a very low extent
difference between extent of liposome leakage α with and without Fe2+/ascorbate ([1]; 100% of the deuterated lipid, FIG. 2A): very low
relative strength of protection of H-Lin-PC bulk: % in bilayer (FIG. 6): 25%
% of deuterated lipid giving very low level of ΔA234 and very low difference in α +/- Fe2+/ascorbate (t=10 min, in H-Lin-PC, FIG. 3): ≥ 20%

[2H]C([2H])(/C=C\CC)/C=C\C/C=C\CCCCCCCC(=O)O[C@H](COC(=O)CCCCCCCCCCCCCCCCC)COP(=O)([O-])OCC[N+](C)(C)C [D2-Lnn-PC, 1-stearoyl-2-(14,14-D2-linolenyl)-sn-glycero-3-phosphatidylcholine]
percentage needed for protection of H-Lin-PC matrix, relative to D4-Lnn-PC (FIG. 6): about twofold as high as that of D4-Lnn-PC

[2H]C([2H])(/C=C\CC)/C=C\C([2H])([2H])/C=C\CCCCCCCC(=O)O[C@H](COC(=O)CCCCCCCCCCCCCCCCC)COP(=O)([O-])OCC[N+](C)(C)C [D4-Lnn-PC, 1-stearoyl-2-(11,11,14,14-D4-linolenyl)-sn-glycero-3-phosphatidylcholine]
relative strength of protection of H-Lin-PC bulk: % in bilayer (FIG. 6): 17%

[2H]C([2H])(/C=C\CCCCC)/C=C\C([2H])([2H])/C=C\C([2H])([2H])/C=C\CCCC(=O)O[C@H](COC(=O)CCCCCCCCCCCCCCCCC)COP(=O)([O-])OCC[N+](C)(C)C [D6-Ara-PC, 1-stearoyl-2-(7,7,10,10,13,13-D6-arachidonoyl)-sn-glycero-3-phosphatidylcholine]
relative strength of protection of H-Lin-PC bulk: % in bilayer (FIG. 6): 12%

[2H]C([2H])(/C=C\CC)/C=C\C([2H])([2H])/C=C\C([2H])([2H])/C=C\C([2H])([2H])/C=C\CCCC(=O)O[C@@H](COC(=O)CCCCCCCCCCCCCCCCC)COP(=O)([O-])OCC[N+](C)(C)C [D8-EPA-PC, 1-stearoyl-2-(7,7,10,10,13,13,16,16-D8-eicosapentaenoyl)-sn-glycero-3-phosphatidylcholine]
relative strength of protection of H-Lin-PC bulk: % in bilayer (FIG. 6): 10%

[2H]C([2H])(/C=C\CC)/C=C\C([2H])([2H])/C=C\C([2H])([2H])/C=C\C([2H])([2H])/C=C\C([2H])([2H])/C=C\CCC(=O)O[C@H](COC(=O)CCCCCCCCCCCCCCCCC)COP(=O)([O-])OCC[N+](C)(C)C [D10-DHA-PC, 1-stearoyl-2-(6,6,9,9,12,12,15,15,18,18-D10-docosahexaenoyl)-sn-glycero-3-phosphatidylcholine]
protection, fold stronger than for D6-Ara (diene conjugates assay, H-Lin-PC matrix): 10 fold
level suppressing lipid autooxidation, diene conjugates assay (in the H-Lin-PC matrix, FIG. 6): ≤ 1%
protection from oxidative stress compared to other deuterated lipids (undeuterated H-Lin-PC matrix, FIG. 6): substantially enhanced protection from oxidative stress

[2H]C([2H])(/C=C\CC)/C=C\C([2H])([2H])/C=C\C([2H])([2H])/C=C\C([2H])([2H])/C=C\C([2H])([2H])/C=C\CCC(=O)OCC [D-DHA, 6,6,9,9,12,12,15,15,18,18-D10-docosahexaenoic acid ethyl ester]
level reached in retinal tissues after oral dosing [2]: above 1%
